Tests used:
[1] = Intrinsic clearance in human liver microsome measured per mg of protein; format: ADME; conditions: liver microsomes
[2] = Distribution coefficient, log D of the compound; format: physicochemical; conditions: octanol/water
[3] = Intrinsic clearance in rat liver microsome measured per mg of protein; format: ADME; conditions: liver microsomes
[4] = Cmax in rat at 3 mg/kg, po; format: ADME, organism-based; design: dose 3 mg/kg, route oral; conditions: in vivo
[5] = Tmax in rat at 3 mg/kg, po; format: ADME, organism-based; design: dose 3 mg/kg, route oral; conditions: in vivo
[6] = AUC in rat at 3 mg/kg, po; format: ADME, organism-based; design: dose 3 mg/kg, route oral; conditions: plasma
[7] = AUC in rat at 1 mg/kg, iv; format: ADME, organism-based; design: dose 1 mg/kg, route intravenous; conditions: plasma
[8] = Half life in rat at 3 mg/kg, po; format: ADME, organism-based; design: dose 3 mg/kg, route oral; conditions: in vivo
[9] = Half life in rat at 1 mg/kg, iv; format: ADME, organism-based; design: dose 1 mg/kg, route intravenous; conditions: in vivo
[10] = Volume of distribution at steady state in rat at 1 mg/kg, iv; format: ADME, organism-based; design: dose 1 mg/kg, route intravenous; conditions: in vivo, read-out: Vdss
[11] = Oral bioavailability in rat at 3 mg/kg; format: ADME, organism-based; conditions: in vivo
[12] = Clearance in rat at 1 mg/kg, iv; format: ADME, organism-based; design: dose 1 mg/kg, route intravenous; conditions: in vivo

Row | Structure (SMILES) | microsomal CLint [1] [µL/min/mg] | logD [2] | microsomal CLint [3] [µL/min/mg] | Cmax [4] [ng/mL] | Tmax [5] [h] | AUC [6] [ng·h/mL] | AUC [7] [ng·h/mL] | half-life [8] [h] | half-life [9] [h] | Vd [10] [L/kg] | bioavailability [11] [%] | clearance [12] [mL/min/kg]
1 | CCCCCCCc1nc(-c2ccc(CNC(=O)[C@H]3NCC[C@@H]3O)cc2)no1 | 45 | 3.7 | 60 | – | – | – | – | – | – | – | – | –
2 | C[C@H](NC(=O)[C@H]1NCC[C@@H]1O)c1ccc(-c2noc(CCC3CCCC3)n2)cc1 | 12 | 2.9 | 49.5 | 82.5 | 0.33 | 232 | 439 | 7.55 | 4.3 | 5.55 | 17.6 | 37.1
3 | C[C@H](NC(=O)[C@H]1NCC[C@@H]1O)c1ccc(-c2noc(CCC3CCCCC3)n2)cc1 | < 4.5 | 3.6 | 50.2 | – | – | – | – | – | – | – | – | –
4 | CC[C@H](NC(=O)[C@H]1NCC[C@@H]1O)c1ccc(-c2noc(CCC3CCCCC3)n2)cc1 | 10 | 4.3 | 38.8 | 37.5 | 0.75 | 94.8 | 204 | 1.64 | 1.64 | 7.86 | 15.3 | 81.8

— ChEMBL document CHEMBL1208743, “Discovery of novel sphingosine kinase-1 inhibitors. Part 2” (Bioorg Med Chem Lett, 2010)
